Paper PMC6670186, “Novel prodrugs of decitabine with greater metabolic stability and less toxicity” (Clinical Epigenetics, 2019)
Marks after values point to notes of the source that are not given here.

Assays:
[1] = Partition coefficient (log P), shake-flask method, n-octanol/PBS; assay type: physicochemical
Experimental: The method employed HPLC with the following conditions: ZORBAX Bonus C18 column (4.6 × 150 mm, 3 μm); eluent: A = 10 mM HCO2NH4, B = acetonitrile, A:B = 50:50 (an isocratic mode for 5 min), and A:B = 99:1–20:80 (a gradient mode for 15 min); flow rate = 1.0 mL/min; oven temperature = 40 °C; detection = 240 nm.

[2] = Stability in phosphate-buffered saline; assay type: physicochemical; conditions: for Stability t1/2 in PBS: PBS 37 °C, 20** + x h, 20 h = t1/2 in PBS of DAC, x = OR compound; for t1/2 in PBS: PBS solution at 37°C
Experimental: Five microliters of DAC derivatives (1.0 mg/100 μL of DMSO) was added to 200 μL of a stirred PBS solution at 37 °C. The mixture was stirred continuously for 1 day. The remaining of the starting derivatives was assayed using the HPLC analytical conditions as described above.

[3] = target: T1, human recombinant cytidine deaminase (Homo sapiens, UniProt P32320); assay: Stability in the presence of cytidine deaminase; assay type: in vitro ADME
T1 construct: His; purchased AT Gen Co. Ltd; Seoul, Korea
T1 sequence (P32320 whole entry): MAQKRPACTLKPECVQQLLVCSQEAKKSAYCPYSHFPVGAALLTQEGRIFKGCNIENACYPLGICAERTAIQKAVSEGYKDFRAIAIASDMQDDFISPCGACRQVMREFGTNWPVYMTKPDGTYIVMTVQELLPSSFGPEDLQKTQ
Source text: The remaining of the starting derivatives were continuously assayed using HPLC analytical conditions as described above.

[4] = Pharmacokinetics in mice, intraperitoneal; assay type: in vivo; conditions: for AUC 0 → lim, DAC / AUC 0 → lim, Total / AUC 0 → lim, OR compound: plasma; for AUC 0 → lim, DAC: DAC (metabolite for OR compounds), equimolar dose; for AUC 0 → lim, Total: OR compound + metabolite DAC; for AUC 0 → lim, OR compound: dose equimolar to 0.20 mg/kg DAC
Experimental: Six-week-old female ICR mice were intraperitoneally injected with 0.20 mg/kg of DAC, 0.29 mg/kg of OR-2003, 0.32 mg/kg of OR-2009, 0.30 mg/kg of OR-2100, and 0.31 mg/kg of OR-2102. The doses were decided so that equivalent amounts of molar concentration would be administered. The blood plasma was collected before and at 5, 15, 30, 45, 60, 90, and 120 min after the treatment. All experimental procedures were approved by the Committee of National Cancer Center.

[5] = tested on: exogenous UCHL1 promoter and OSR2 promoter CpG island; assay: Quantitative methylation-specific PCR of marker genes; assay type: cell-based, Human; conditions: qMSP; for DNA demethylation after pulse exposure: HML58-3 cells, 1.0 μM for 1 h; for DNA demethylation of exogenous UCHL1 promoter and OSR2 promoter CpG island: 0.0 to 10.0 μM
Experimental: One microgram of EcoRV-digested genomic DNA was treated with sodium bisulfite as described previously. Bisulfite-treated DNA was resuspended in 40 μL of TE-buffer (10 mM Tris, pH 8.0; 1 mM EDTA, pH 8.0), and 1 μL was used for quantitative methylation-specific PCR (qMSP) using primers specific to methylated and unmethylated target loci, including MetLuc-UCHL1 promoter, OSR2 promoter, and UCHL1 promoter (Additional file 1: Table S1). As a fully unmethylated DNA control, genomic DNA from peripheral blood cells of a healthy person was amplified twice using a GenomiPhi DNA amplification kit (GE Healthcare Life Sciences; Little Chalfont, UK). As a fully methylated DNA control, the fully unmethylated DNA was methylated by SssI methylase (New England Biolabs; Beverly, MA).

[6] = tested on: HML58-3 cells; assay: Genome-wide DNA methylation analysis (Infinium MethylationEPIC); assay type: cell-based, Human; conditions: 1 μM
Experimental: Genome-wide DNA methylation analysis was performed using an Infinium Human MethylationEPIC BeadChip (Infinium EPIC; Illumina; Sam Diego, CA) as described previously. The BeadArray assessed the degree of methylation of 862,927 CpG probes as beta-values that ranged from 0 (unmethylated) to 1 (fully methylated). To reduce the data size and obtain data that were easy to handle, the CpG probes were grouped into 548,546 genomic blocks (GBs), which consisted of probes within 500 bp.

[7] = tested on: RKO cells; assay: Cell growth inhibition, RKO; assay type: cell-based, Human
Experimental: (§1) Cells were seeded at a density of 1 × 10^3 to 5 × 10^3 cells/well in a 96-well microplate or 1 × 10^4 to 5 × 10^4 cells/well in a six-well microplate on day 0 in triplicate, followed by treatment with drugs on day 1. The cell growth of HCT116 was estimated using IncuCyte (Essen BioScience, K.K.; Tokyo, Japan) for 94 h. The cell viability of SW480, HT29, and TMK1 was evaluated using a WST-8 [2-(2-methoxy-4-nitrophenyl)-3-(4-nitrophenyl)-5-(2, 4-disulfophenyl)-2H tetrazolium, monosodium salt] assay (Nacalai Tesque Inc., Kyoto, Japan). The numbers of cells of RKO, breast cancer cell lines, sarcoma cell lines, and neuroblastoma cell lines were counted using a microscope. The half-maximum inhibitory concentration (IC50) was obtained using the non-linear regression analysis of log (inhibitor) versus the normalized response with a variable slope using the GraphPad Prism software (GraphPad Software; La Jolla, CA).

[8] = tested on: TMK1 cells; assay: Cell viability (WST-8), TMK1; assay type: cell-based
Experimental: as §1

[9] = tested on: HCT116 cells; assay: Cell growth inhibition, HCT116; assay type: cell-based, Human
Experimental: as §1

[10] = tested on: HML58-3; assay: Expression microarray; assay type: cell-based, Human; conditions: 1 μM, 58,341 probes
Experimental: Cy3-labeled cRNA was synthesized from 100 ng of total RNA using a Low Input Quick Amp Labeling Kit, One-Color (Agilent Technologies, Santa Clara, CA), and 600 ng of labeled cRNA was fragmented and hybridized to SurePrint G3 Human Gene Expression 8 x 60K v3 Microarray (Agilent Technologies). The hybridized microarray was scanned with an Agilent G2600D microarray scanner (Agilent Technologies). The scanned data were processed using Feature Extraction software (Agilent Technologies) and analyzed using GeneSpring software (Agilent Technologies). The 75th percentile of the signal intensity of all probes was normalized to be 0, and the genes with signal intensities of − 1 or more were regarded as showing positive expression.

[11] = tested on: SFRP1 and UCHL1; assay: RT-qPCR of tumor-suppressor genes after pulse exposure; assay type: cell-based, Human; conditions: HML58-3 cells, 1.0 μM for 1 h
Experimental: Complementary DNA (cDNA) was synthesized from DNase-treated total RNA (1 μg) using oligo-(dT) 20 (Thermo Fisher Scientific; Waltham, MA) and SuperScript IV Reverse Transcriptase (Thermo Fisher Scientific). The number of cDNA molecules was quantified using qRT-PCR. The primer sequences and PCR conditions are shown in Additional file 1: Table S1. The copy number of each sample was calculated by comparing the amplification curve with those of standard DNA samples with known copy number. The number of target cDNA molecules was normalized to that of GAPDH cDNA molecules.

[12] = tested on: HCT116 xenografts; assay: Xenograft tumor formation assay in nude mice; assay type: in vivo; conditions: for DNA demethylation of two promoters in xenograft tumors: group 2 mice; for tumor growth (tumor volume): intraperitoneal, twice per week
Experimental: (§2) HCT116 cells (5.0 × 10^6 cells per mouse) were subcutaneously injected into the inguinal region of 6-week-old female nude mice (n = 81) (BALB/c-nu/nu; CLEA Japan, Tokyo, Japan). Once tumors reached an average volume of 80 mm^3, mice bearing xenograft tumors were randomly divided into nine groups and treated intraperitoneally with vehicle (5% DMSO in 10% 2-hydroxypropyl-β-cyclodextrin solution), DAC, OR-2003, or OR-2100. The length and width of tumors were measured with standard calipers twice per week, and tumor volumes were calculated using the formula tumor volume = (length × width^2) × 0.5. Body weight was measured twice per week. […] The remaining mice were categorized as group 1 and continuously treated with drugs. At 29 days after the treatment, tumors, major organs, bone marrow, and blood serum were collected from six mice and blood count and biochemical tests were performed. The mice were maintained under standard conditions according to the institutional guidelines for animal care.

[13] = Adverse effects in xenograft-bearing nude mice (body weight, blood count, biochemical tests); assay type: in vivo; conditions: for WBC count and liver function: doses equimolar to that of DAC
Experimental: as §2

[14] = tested on: HML58-3 cells; assay: Luciferase reporter assay for DNA demethylation; assay type: cell-based, Human; conditions: 0.1 and 1.0 μM for 1 h, analyzed on day 5
Experimental: Cells were seeded at a density of 5 × 10^3 cells/well in a 96-well microplate on day 0 in triplicate, and 5 × 10^4 cells/well in a six-well plate on day 0. On day 1, the medium was replaced with a medium containing a specific concentration of a drug, which was freshly dissolved in DMSO and filtered through a 0.2-μ filter. On day 5, the supernatant from each well of the 96-well microplate was collected to measure luminescence. Luminescence was measured using the Ready-To-Glow^TM Secreted Luciferase Reporter Assay (Clontech; Mountain View, CA) and a multimode plate reader ARVO^TMMX (PerkinElmer Japan Co Ltd.; Kanagawa, Japan).

| Compound | Log PO/PBS [1] | half-life (time to release DAC) [2] | Stability t1/2 in PBS [2] | t1/2 in PBS [2] | total AUC of OR compound and metabolite DAC compared with DAC [4] | AUC 0 → lim, DAC [4] | AUC 0 → lim, Total [4] | AUC 0 → lim, OR compound [4] | DNA demethylation after pulse exposure [5] | DNA demethylation of exogenous UCHL1 promoter and OSR2 promoter CpG island [5] | genome-wide DNA demethylation [6] | IC50 [7] | IC50 [8] | IC50 [9] | number of genes upregulated more than twofold and to − 1.0 log2 value [10] | DNA demethylation of two promoters in xenograft tumors [12] | tumor growth (tumor volume) [12] | WBC count and liver function [13] | also measured |
| --- | --- | --- | --- | --- | --- | --- | --- | --- | --- | --- | --- | --- | --- | --- | --- | --- | --- | --- | --- |
| CCC[Si](C)(C)OC[C@H]1O[C@@H](n2cnc(N)nc2=O)C[C@@H]1O [OR-2003] | 1.64 | 1 h | 20** + 1 h | 1.0 h | larger AUCs than that of DAC | 0.338 µM·h | 0.643 µM·h | 0.305 µM·h | stronger demethylation | as strongly as DAC | as strong DNA demethylation as DAC | 40 nM | 2840 nM | 910 nM | 2060 | significant demethylation | significant and dose-dependent inhibition of tumor growth | no influence | enzymatic stability in the presence of CDA [3]: stable in the presence of CDA; Cmax ([4]; comparison among four OR compounds): highest Cmax; expression level of SFRP1 and UCHL1 after pulse exposure [11]: twice as high as that induced by DAC; tumor growth inhibition ([12]; highest dose 3.600 mg/kg): strongest effect; WBC count ([13]; highest dose 3.600 mg/kg): affected the WBC count |
| CC[Si](CC)(CC)OC[C@H]1O[C@@H](n2cnc(N)nc2=O)C[C@@H]1O [OR-2100] | 2.14 | ≥ 14 h | 20** + 16 h | 16 h | larger AUCs than that of DAC | 0.266 µM·h | 0.434 µM·h | 0.168 µM·h | stronger demethylation | slightly lower demethylation | as strong DNA demethylation as DAC | 60 nM | 1410 nM | 1110 nM | 2041 | significant demethylation | significant and dose-dependent inhibition of tumor growth | no influence | luciferase activity after pulse exposure [14]: weaker than that of DAC; adverse effects ([13]; high dose): no adverse effects |
